Test results taken from PMC12794274, “Therapeutic potential of Sheng-Xian-Tang in doxorubicin-induced chronic heart failure by regulation of phenylalanine metabolism disruption” (Chinese Medicine, 2026).
Values joined by “and” are separate entries in the source; they are usually repeats but may differ in a detail not shown here. Equal entries are not always repeated.

What was measured:
[1] = tested on: DOX-induced chronic heart failure (CHF) rat model; assay: Echocardiography (LVEF%, LVFS%) in DOX-induced CHF rats; format: in vivo; conditions: DOX group, cumulative 15 mg/kg, day 39
Experimental: Experiment I, 48 rats were randomly divided into six groups: (1) the CON group; (2) the DOX group; (3) the DOX + enalapril (ENP, positive control, 1.8 mg/kg) group; (4) the DOX + SXT at low dose group (4 g/kg); (5) the DOX + SXT at middle dose group (8 g/kg); and […] the DOX + SXT at high dose group (16 g/kg). Except those rats in the CON group, the remaining rats received DOX at a 2.5 mg/kg per injection to a cumulative dose of 15 mg/kg. The dose of SXT for the low-dose group was set at 4 g/kg, based on the minimum human clinical daily dose (48.5 g, Table S2) converted to an equivalent rat dose using body surface area normalization (48.5 g/70 kg × 6.3 ≈ 4.4 g/kg, rounded to 4 g/kg). To evaluate a clear dose–response relationship, the medium and high doses were established at 8 g/kg and 16 g/kg, respectively, corresponding to 2 fold and 4 fold the low dose. This gradient dosing strategy is consistent with the Technical Guidelines for Pharmacodynamic Studies of Traditional Chinese Medicine and the Technical Guidelines for General Pharmacology Studies of Traditional Chinese Medicine and Natural Drugs, and is further supported by our previous study on the effective dose range of SXT in a rat model of doxorubicin-induced chronic heart failure. Heart function was monitored by echocardiography analysis at day 39, and the CHF model was considered to be successfully established when the left ventricular ejection fraction (LVEF%) values were reduced to 50%. Urinary samples were collected at five time points (0, 10, 20, 30, and 39 d), while fecal samples were collected before the rats were euthanized. Subsequently, the rats were anesthetized, and blood samples and heart and liver tissues were collected. All bio-samples were stored at − 80 °C until analysis.
Experiment II was conducted to specifically confirm the exacerbated cardiac abnormality of phenylalanine in the DOX-induced CHF rats. […] Heart function was detected as in the experiment I.
Echocardiographic (ECG) measurements were performed using M-mode tracings and continuous Doppler with a Vevo 2100 system (Visual Sonics, Toronto, ON, Canada). Rats were anesthetized with isoflurane prior to imaging. Cardiac function indices including left ventricular ejection fraction (LVEF%) and left ventricular fractional shortening (LVFS%) were measured and recorded.

[2] = Rat body weight; format: in vivo; conditions: DOX group vs CON group, experiment I
Experimental: Experiment I, 48 rats were randomly divided into six groups: (1) the CON group; (2) the DOX group; (3) the DOX + enalapril (ENP, positive control, 1.8 mg/kg) group; (4) the DOX + SXT at low dose group (4 g/kg); (5) the DOX + SXT at middle dose group (8 g/kg); and […] the DOX + SXT at high dose group (16 g/kg). Except those rats in the CON group, the remaining rats received DOX at a 2.5 mg/kg per injection to a cumulative dose of 15 mg/kg. The dose of SXT for the low-dose group was set at 4 g/kg, based on the minimum human clinical daily dose (48.5 g, Table S2) converted to an equivalent rat dose using body surface area normalization (48.5 g/70 kg × 6.3 ≈ 4.4 g/kg, rounded to 4 g/kg). To evaluate a clear dose–response relationship, the medium and high doses were established at 8 g/kg and 16 g/kg, respectively, corresponding to 2 fold and 4 fold the low dose. […] Heart function was monitored by echocardiography analysis at day 39, and the CHF model was considered to be successfully established when the left ventricular ejection fraction (LVEF%) values were reduced to 50%. […]

[3] = tested on: DOX-induced CHF rats; assay: Serum biochemical parameters (BNP, CK, LDH, ALT, AST) by ELISA kits; format: in vivo, rat; conditions: DOX group, experiment I
Experimental: Serum biochemical parameters including brain natriuretic peptide (BNP), creatine kinase (CK), lactate dehydrogenase (LDH), alanine aminotransferase (ALT), and aspartate aminotransferase (AST) were measured using commercial ELISA kits (Nanjing Jiancheng Bioengineering Institute, Nanjing, China) according to the manufacturer's instructions. Superoxide dismutase (SOD), and malondialdehyde (MDA) levels in liver and heart tissues were measured using assay kits from […] Biotechnology (Changsha, China). Phenylalanine and tyrosine concentrations in the cell were determined using an ELISA kit from Abmart (Shanghai, China).

[4] = tested on: gut microbiota; assay: 16S rRNA sequencing of gut microbiota; format: in vivo, rat; conditions: DOX group vs CON group
Experimental: 16S rRNA sequencing and bioinformatics analysis were performed by OEbiotech Co. Ltd. (Shanghai, China). Total genomic DNA was extracted from cecal contents. The V3–V4 hypervariable region of the 16S rRNA gene was amplified using primers 343F and 798R. Clean reads were processed to remove primer sequences and clustered into operational taxonomic units (OTUs) at 97% similarity using Vsearch software. OTUs were annotated by comparison against the […]. Alpha diversity was assessed using the Simpson index. Beta diversity was evaluated using Bray–Curtis distances and visualized by principal coordinates analysis (PCoA). Differential abundance analysis of gut microbiota associated with DOX-induced CHF was performed using linear discriminant analysis effect size (LEfSe) and random forest algorithms.

[5] = tested on: heart tissues; assay: Transmission electron microscopy of heart tissue; format: in vivo, rat; conditions: experiment II; DOX alone, co-treatments vs DOX
Experimental: Freshly excised heart tissues were immediately fixed in 2.5% glutaraldehyde at 4 °C overnight. After washing with 0.1 M cacodylate trihydrate buffer, samples were post-fixed with 1% osmium tetroxide for 1 h. Tissues were then dehydrated through a graded ethanol series, incubated in acetone, and embedded in epoxy resin. Ultrathin sections were mounted on copper grids and imaged using a Hitachi HT7800 transmission electron microscope (Tokyo, Japan).

[6] = tested on: AML12 cells; assay: AML12 cell viability (CCK8); format: cell-based
Experimental: (§1) Mouse hepatocellular cell lines (AML12), purchased from the Shanghai Cell Bank of Chinese Academy of Sciences (Shanghai, China), were cultured in Dulbecco’s Modified Eagle Medium (DMEM) supplemented with 10% fetal bovine serum (FBS) and 2 mM L-glutamine and 1% pyruvate and maintained at 37 °C in a […], 5% CO2 incubator. Cells were seeded at a density of 5 × 10^5 cells/well in 6-well plates. […] Cells’ survival rate was detected by Cell Counting Kit-8 (CCK8) Reagents (Thermo Scientific, Singapore).

[7] = tested on: PAH activity in AML12 cells; format: cell-based
Experimental: Serum biochemical parameters including brain natriuretic peptide (BNP), creatine kinase (CK), lactate dehydrogenase (LDH), alanine aminotransferase (ALT), and aspartate aminotransferase (AST) were measured using commercial ELISA kits (Nanjing Jiancheng Bioengineering Institute, Nanjing, China) according to the manufacturer’s instructions. Superoxide dismutase (SOD), and malondialdehyde (MDA) levels in liver and heart tissues were measured using assay kits from Aifang Biotechnology (Changsha, China). Phenylalanine and tyrosine concentrations in the cell were determined using an ELISA kit from Abmart (Shanghai, China).
as §1

[8] = tested on: AML12 cells; format: cell-based, mouse
Experimental: as §1

What does the source list for `COc1cccc2c1C(=O)c1c(O)c3c(c(O)c1C2=O)C[C@@](O)(C(=O)CO)C[C@@H]3O[C@H]1C[C@H](N)[C@H](O)[C@H](C)O1` [DOX, Doxorubicin]?
LVFS [1]: < 30% and 25.62%; body weight [2]: significant reduction; serum ALT and AST levels [3]: increased; Muribaculaceae abundance [4]: decreased; relative abundance of Proteobacteria ([4]; p < 0.01): significantly increased; mitochondrial ultrastructure of heart (electron microscopy) [5]: mitochondrial shrinkage, increased membrane density, and marked reduction and shortening of cristae with focal vacuolization; cell viability [6]: significant reduction; IC50 ([6]; Mus musculus, AML12, read-out: DOX concentration that caused 50% cell death (IC50)): 1000 nM; phenylalanine levels in AML12 cells [7]: significant increases; phenylalanine metabolism (Phe level, Phe/Tyr ratio) ([7]; AML12 cells, DOX vs CON, neomangiferin vs DOX, dose-dependent): significantly suppressed; MDA levels [8]: increase; SOD activity [8]: significant reduction
